Source: PubChem BioAssay (NCI)
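In this assay, cells in 96-well plates receive the compound at five concentrations for 48 hours. Endpoints are linearly interpolated between the surrounding concentrations. Here, GI50 denotes the concentration required for 50% inhibition of growth. TGI marks complete inhibition of growth.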

Tests used:
Assay in all cases: growth of human tumour cells (NCI), 48 h
[1] = test system: DU-145 prostate
[2] = test system: RPMI-8226 leukemia
[3] = test system: TK-10 renal
[4] = test system: MDA-MB-231 breast
[5] = test system: OVCAR-3 ovarian
[6] = test system: UACC-62 melanoma
[7] = test system: U251 CNS
[8] = test system: SR leukemia
[9] = test system: HT29 colon
[10] = test system: MDA-MB-468 breast
[11] = test system: A549 NSCLC
[12] = test system: IGROV1 ovarian
[13] = test system: 786-0 renal
[14] = test system: MOLT-4 leukemia
[15] = test system: HS 578T breast
[16] = test system: K-562 leukemia
[17] = test system: NCI-H460 lung
[18] = test system: M14 melanoma
[19] = test system: KM12 colon
[20] = test system: COLO 205 colon
[21] = test system: CAKI-1 renal
[22] = test system: LOX IMVI melanoma
[23] = test system: MDA-MB-435
[24] = test system: A498 renal
[25] = test system: SF-268 CNS
[26] = test system: SK-MEL-28 melanoma
[27] = test system: OVCAR-8 ovarian
[28] = test system: NCI-H226 lung
[29] = test system: SK-MEL-5 melanoma
[30] = test system: MALME-3M melanoma

## O=C(CN1CCN(c2ncnc3c2cnn3-c2ccccc2)CC1)Nc1nncs1
[1]
  GI50: 1.8 µM
  TGI: 3.24 µM
[2]
  GI50: 2.83 µM
  TGI: 8.67 µM
[3]
  GI50: 3.09 µM
  TGI: 6.14 µM
[4]
  GI50: 1.78 µM
  TGI: 3.87 µM
[5]
  GI50: 1.93 µM
  TGI: 3.67 µM
[6]
  GI50: 4.97 µM
  TGI: 18.7 µM
[7]
  GI50: 1.92 µM
  TGI: 3.99 µM
[8]
  GI50: 2.11 µM
  TGI: 5.26 µM
[9]
  GI50: 6.91 µM
  TGI: 19.3 µM
[10]
  GI50: 3.05 µM
  TGI: 13.7 µM
[11]
  GI50: 2.07 µM
  TGI: 4.31 µM
[12]
  GI50: 2.68 µM
  TGI: 7.65 µM
[13]
  GI50: 1.99 µM
  TGI: 3.56 µM
[14]
  GI50: 4.08 µM
  TGI: 31.3 µM
[15]
  GI50: 12.4 µM
  TGI: 63 µM
[16]
  GI50: 7.91 µM
  TGI: 36.6 µM
[17]
  GI50: 4.25 µM
  TGI: 14.7 µM
[18]
  GI50: 4.17 µM
  TGI: 16.2 µM
[19]
  GI50: 4.46 µM
  TGI: 15.9 µM
[20]
  GI50: 14 µM
  TGI: 27 µM
[21]
  GI50: 1.6 µM
  TGI: 2.97 µM
[22]
  GI50: 1.49 µM
  TGI: 2.81 µM
[23]
  GI50: 13.6 µM
  TGI: 27.5 µM
[24]
  GI50: 18.4 µM
  TGI: 35 µM
[25]
  GI50: 4.79 µM
  TGI: 19.3 µM
[26]
  GI50: 13.9 µM
  TGI: 26.9 µM
[27]
  GI50: 1.93 µM
  TGI: 4.02 µM
[28]
  GI50: 1.84 µM
  TGI: 5.14 µM
[29]
  GI50: 10.2 µM
  TGI: 21.9 µM
[30]
  GI50: 1.69 µM
